Here are results for two compounds from patent US9573895B2, “Tetracycline compounds” (Tetraphase Pharmaceuticals, Inc., priority 2012, dated 2017).

≈ marks a conversion by molar mass, not a printed value.

The test system of this test is Burkholderia cenocepacia BC240 (Cystic fibrosis isolate, MDR). In words: MIC assay BC240. In kind it is cell-based.

Consider `CN(C)[C@@H]1C(O)=C(C(N)=O)C(=O)[C@@]2(O)C(O)=C3C(=O)c4c(O)cccc4C[C@H]3C[C@@H]12` [Sancycline, sancycline], for which the “MIC BC240” value by setting is: (Table 5) 4 µg/mL (≈ 9.65 µM); (Table 6) 4 µg/mL (≈ 9.65 µM); (Table 7) 4 µg/mL (≈ 9.65 µM); (control compounds, numeric) 4 µg/mL (≈ 9.65 µM).

On to `CN(C)c1cc(NC(=O)CNC(C)(C)C)c(O)c2c1C[C@H]1C[C@H]3[C@H](N(C)C)C(O)=C(C(N)=O)C(=O)[C@@]3(O)C(O)=C1C2=O` [Tigecycline, tigecycline], for which the “MIC BC240” value (Table 5) amounted to 16 µg/mL (≈ 27.3 µM); the “MIC BC240” value (Table 6) was 16 µg/mL (≈ 27.3 µM); the “MIC BC240” value (Table 7) came to 16 µg/mL (≈ 27.3 µM); the “MIC BC240” value (control compounds, numeric) was found to be 16 µg/mL (≈ 27.3 µM).
